This note sets out measurements from patent publication US12194050B2, “Thiadiazine derivatives” (RICHTER GEDEON NYRT., priority 2018, dated 2025).

human α7 nAchR, sequence (P36544 23-502): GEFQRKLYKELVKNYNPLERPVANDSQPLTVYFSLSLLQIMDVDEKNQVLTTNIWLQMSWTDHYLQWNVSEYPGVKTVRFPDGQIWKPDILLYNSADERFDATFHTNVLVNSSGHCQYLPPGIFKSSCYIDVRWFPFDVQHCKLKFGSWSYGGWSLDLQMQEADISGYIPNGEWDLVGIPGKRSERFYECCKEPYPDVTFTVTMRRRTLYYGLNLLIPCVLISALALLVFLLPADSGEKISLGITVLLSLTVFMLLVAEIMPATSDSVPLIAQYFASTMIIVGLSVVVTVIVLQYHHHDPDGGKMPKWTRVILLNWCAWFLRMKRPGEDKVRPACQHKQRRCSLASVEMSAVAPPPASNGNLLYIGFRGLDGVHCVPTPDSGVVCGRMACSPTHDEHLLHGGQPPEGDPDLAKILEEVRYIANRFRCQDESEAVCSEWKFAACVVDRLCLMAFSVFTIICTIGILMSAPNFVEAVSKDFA

The experiment addresses human α7 nAchR (Homo sapiens (Human), UniProt P36544). The experiment can be described thus: Human α7 nicotinic acetylcholine receptor [Ca2+]i assay (PAM, Ca2+ fluorometry). The format is cell-based. The note with it: Flp-In 293 cells expressing human α7 nAchR and human RIC-3; in presence of saturating agonist (mostly PNU-282987, 1 μM). On the procedure: Biological Activity Human α7 Nicotinic Acetylcholine Receptor [Ca^2+]i Assay
Cells: Flp-In 293 cells stably expressing human α7 nAchR and human RIC-3 (α7 cells, generated in house.)
Materials: 96-well plates coated with PDL (Falcon), culture medium, assay buffer, DMSO, FLIPR Calcium 5 kit (Molecular Devices), probenecid, agonist and PAM test compounds.
Brief Description of the Method (Ca^2+ Fluorometry)
α7 cells stably expressing human α7 nAchR were cultured in the medium detailed above, and were split twice a week. For the fluorometric measurements of cytosolic Ca^2+ ion concentration ([Ca^2+]i) cells were seeded in 96-well microplates at a density of 60000 cells/well and maintained overnight in a tissue culture incubator at 37° C. under an atmosphere of 95% air/5% CO2. The plating medium was identical with the culture medium. 50 μl of the growth medium was aspirated with a cell washer (BioTek Elx405UCVWS). Then 50 μl/well Calcium 5 kit diluted 2-fold in assay buffer was added manually using an 8-channel pipette. After an incubation period (20 minutes, 37° C.) 50 μl/well assay buffer containing vehicle (DMSO, 4% added) or reference α7 PAMs (4×of the final concentration) were added manually and the cells were incubated for an additional 10 minutes at 37° C. Baseline and agonist-evoked [Ca2+]i-changes were monitored with FlexStation II (Molecular Devices, Sunnyvale, Calif.), a plate reader fluorometer with integrated 8-channel fluid addition capability. Fluorescence measurements were carried out at 37° C. The dye was excited at 485 nm, emission was sampled at 525 nm at 1.4-s intervals. Baseline was recorded for 20 seconds followed by agonist stimulation. 50 μl 4× concentrated agonist solution was added to the cells using the pipettor of FlexStation II and fluorescence was monitored for an additional 40 seconds. Final DMSO concentration was 1% for all treatments. To achieve this, a series of DMSO stock solutions were prepared from all test compounds. These stocks were stored under 0° C. and were further diluted in assay buffer to obtain the desired final concentration immediately before the measurement. Agonist and PAM concentration-response studies were conducted in the presence of saturating concentrations of PAMs (mostly PNU-120596, 5 μM) and agonists (mostly PNU-282987, 1 μM), respectively. Results were expressed as ΔF/F values using SoftMax Pro software (Molecular Devices), where F was the resting fluorescence preceding agonist application and ΔF was the increase in fluorescence at a given time (ΔF=maximum fluorescence intensity values after stimulation minus average fluorescence intensity values before stimulation). In all experiments, all treatments were measured in multiple wells in parallel, and the mean ΔF/F values were used for analysis.
Take `CCN1C(C(=O)Nc2ccnc(C(F)(F)F)c2)=CC([C@H]2CC[C@H](C(F)(F)F)CC2)=NS1(=O)=O` [Example 88]: the EC50 came to 1400 nM. Next, `COc1ccc(C2=NS(=O)(=O)N(C(C)C)C(C(=O)Nc3cccc(C(F)(F)F)c3)=C2)cc1OC` [Example 89]: 290 nM; `COc1ccc(C2=NS(=O)(=O)N(C(C)C)C(C(=O)Nc3cccc(Nc4cccc(F)n4)n3)=C2)cc1OC` [Example 90]: 1200 nM. Next, `COc1ccc(C2=NS(=O)(=O)N(C(C)C)C(C(=O)Nc3cccc(Cl)c3)=C2)cc1OC` [Example 92]: 290 nM; `CC(C)N1C(C(=O)Nc2cccc(C(F)(F)F)n2)=CC([C@H]2CC[C@H](C(F)(F)F)CC2)=NS1(=O)=O` [Example 93]: 120 nM. `CCCN1C(C(=O)Nc2cccc(C(F)(F)F)n2)=CC(c2ccc(OC)c(OC)c2)=NS1(=O)=O` [Example 95]: the EC50 stood at 45 nM. Under `CCCN1C(C(=O)Nc2cccc(C(F)(F)F)c2)=CC(c2cc(OC)c(OC)cc2F)=NS1(=O)=O` [Example 96] stands 330 nM; under `CCCN1C(C(=O)Nc2cccc(C(F)(F)F)n2)=CC(c2ccc(OC)c(C(F)(F)F)c2)=NS1(=O)=O` [Example 97], 30 nM.

For `CCCN1C(C(=O)Nc2cccc(C(F)(F)F)c2)=CC(c2ccc(OC)c(C)c2)=NS1(=O)=O` [Example 98], the concentration giving a half-maximal response (EC50) was determined as 100 nM. Consider `CCCN1C(C(=O)Nc2cccc(C(F)(F)F)n2)=CC(c2ccc(OC)c(C)c2)=NS1(=O)=O` [Example 99], for which the EC50 worked out at 40 nM. Next, `CCCN1C(C(=O)Nc2cccc(C(F)(F)F)c2)=CC(c2ccc(OC)c(Cl)c2)=NS1(=O)=O` [Example 100]: 150 nM. Under `CCCN1C(C(=O)Nc2cccc(C(F)(F)F)n2)=CC(c2ccc(OC)c(Cl)c2)=NS1(=O)=O` [Example 101] stands 65 nM. For the molecule `COc1ccc(C2=NS(=O)(=O)N(CC3CC3)C(C(=O)Nc3cccc(C(F)(F)F)c3)=C2)cc1OC` [Example 102], the EC50 was 320 nM.

Turning to `COc1ccc(C2=NS(=O)(=O)N(CC3CC3)C(C(=O)Nc3cccc(C(F)(F)F)n3)=C2)cc1OC` [Example 103], the EC50 was found to be 110 nM. Next, `COc1ccc(C2=NS(=O)(=O)N(CC3CC3)C(C(=O)Nc3cccc(Cl)c3)=C2)cc1OC` [Example 104]: 370 nM; `COc1ccc(C2=NS(=O)(=O)N(CC3CC3)C(C(=O)Nc3cccc(C(F)(F)F)c3)=C2)cc1C` [Example 105]: 120 nM.

As for `O=C(Nc1cccc(C(F)(F)F)n1)C1=CC([C@H]2CC[C@H](C(F)(F)F)CC2)=NS(=O)(=O)N1CC1CC1` [Example 106], the EC50 was 70 nM. Under `C=CCN1C(C(=O)Nc2cccc(C(F)(F)F)n2)=CC(c2ccc(OC)c(OC)c2)=NS1(=O)=O` [Example 107] stands 55 nM. In the case of `COc1ccc(NC(=O)C2=CC(c3ccc(OC)c(OC)c3)=NS(=O)(=O)N2C(C)C)cc1` [Example 108], the EC50 worked out at 1300 nM. Regarding `COc1ccc(C2=NS(=O)(=O)N(C(C)C)C(C(=O)Nc3cc(Cl)ccn3)=C2)cc1OC` [Example 110], the EC50 came to 640 nM. Next, `CCCCN1C(C(=O)Nc2cccc(C(F)(F)F)c2)=CC(c2ccc(OC)c(OC)c2)=NS1(=O)=O` [Example 111]: 200 nM; `CCCN1C(C(=O)Nc2ccc(OC)cc2)=CC(c2ccc(OC)c(OC)c2)=NS1(=O)=O` [Example 112]: 75 nM. With `CCCN1C(C(=O)Nc2cccc(C)c2)=CC(c2ccc(OC)c(OC)c2)=NS1(=O)=O` [Example 113], the EC50 turned out to be 80 nM. Next, `CCCN1C(C(=O)Nc2cccc(Cl)c2)=CC(c2ccc(OC)c(OC)c2)=NS1(=O)=O` [Example 114]: 380 nM; `CCCN1C(C(=O)Nc2cccc(C(F)(F)F)c2)=CC(c2ccc(OC)c(C(F)(F)F)c2)=NS1(=O)=O` [Example 115]: 85 nM; `COc1ccc(NC(=O)C2=CC(c3ccc(OC)c(OC)c3)=NS(=O)(=O)N2CC2CC2)cc1` [Example 116]: 100 nM. Turning to `COc1ccc(C2=NS(=O)(=O)N(CC3CC3)C(C(=O)Nc3cccc(C)c3)=C2)cc1OC` [Example 117], the EC50 is 110 nM. Next, `COc1ccc(C2=NS(=O)(=O)N(CC(F)(F)F)C(C(=O)Nc3cccc(C(F)(F)F)c3)=C2)cc1OC` [Example 118]: 530 nM; `COc1ccc(C2=NS(=O)(=O)N(CC(F)(F)F)C(C(=O)Nc3cccc(C)c3)=C2)cc1OC` [Example 119]: 380 nM; `C=CCN1C(C(=O)Nc2ccc(OC)cc2)=CC(c2ccc(OC)c(OC)c2)=NS1(=O)=O` [Example 120]: 120 nM. On to `C=CCN1C(C(=O)Nc2cccc(C(F)(F)F)c2)=CC(c2ccc(OC)c(OC)c2)=NS1(=O)=O` [Example 121], for which the EC50 turned out to be 220 nM. Under `COc1ccc(C2=NS(=O)(=O)N(C(C)C)C(C(=O)Nc3cccc(F)n3)=C2)cc1OC` [Example 123] stands 55 nM; under `CC(C)N1C(C(=O)Nc2cncc(C(F)(F)F)n2)=CC([C@H]2CC[C@H](C(F)(F)F)CC2)=NS1(=O)=O` [Example 124], 110 nM.

Take `CC(C)N1C(C(=O)Nc2cccc(F)n2)=CC([C@H]2CC[C@H](C(F)(F)F)CC2)=NS1(=O)=O` [Example 125]: the EC50 was found to be 45 nM. For `CC(C)N1C(C(=O)Nc2cccc(C(F)(F)F)n2)=CC(C2CCC(F)(F)CC2)=NS1(=O)=O` [Example 126], the half-maximal effective concentration (EC50) worked out at 220 nM. Regarding `CC(C)N1C(C(=O)Nc2cccc(F)n2)=CC(C2CCC(F)(F)CC2)=NS1(=O)=O` [Example 127], the EC50 amounted to 580 nM. Consider `COCCN1C(C(=O)Nc2cccc(C(F)(F)F)n2)=CC([C@H]2CC[C@H](C(F)(F)F)CC2)=NS1(=O)=O` [Example 128], for which the EC50 worked out at 310 nM. Regarding `COCCN1C(C(=O)Nc2cccc(C(F)(F)F)n2)=CC(C2CCC(F)(F)CC2)=NS1(=O)=O` [Example 130], the EC50 worked out at 960 nM. Next, `COCCN1C(C(=O)Nc2cccc(F)n2)=CC(C2CCC(F)(F)CC2)=NS1(=O)=O` [Example 131]: 1800 nM; `O=C(Nc1cccc(F)n1)C1=CC([C@H]2CC[C@H](C(F)(F)F)CC2)=NS(=O)(=O)N1CC1CC1` [Example 132]: 35 nM.

As to `O=C(Nc1ccc(F)cn1)C1=CC([C@H]2CC[C@H](C(F)(F)F)CC2)=NS(=O)(=O)N1CC1CC1` [Example 133], the EC50 worked out at 230 nM. Turning to `O=C(Nc1cccc(C(F)(F)F)n1)C1=CC(C2CCC(F)(F)CC2)=NS(=O)(=O)N1CC1CC1` [Example 134], the EC50 stood at 80 nM. Regarding `O=C(Nc1cccc(F)n1)C1=CC(C2CCC(F)(F)CC2)=NS(=O)(=O)N1CC1CC1` [Example 135], the EC50 came to 120 nM. Under `CC(C)N1C(C(=O)Nc2ccnc(C(F)(F)F)n2)=CC([C@H]2CC[C@H](C(F)(F)F)CC2)=NS1(=O)=O` [Example 136] stands 150 nM; under `O=C(Nc1ccnc(C(F)(F)F)n1)C1=CC([C@H]2CC[C@H](C(F)(F)F)CC2)=NS(=O)(=O)N1CC1CC1` [Example 137], 130 nM. `CC(C)N1C(C(=O)Nc2cncc(F)n2)=CC([C@H]2CC[C@H](C(F)(F)F)CC2)=NS1(=O)=O` [Example 138]: the EC50 was found to be 140 nM. Under `O=C(Nc1cncc(F)n1)C1=CC([C@H]2CC[C@H](C(F)(F)F)CC2)=NS(=O)(=O)N1CC1CC1` [Example 139] stands 150 nM.
